Data reported in article PMC9320028, “A Series of New Pyrrole Alkaloids with ALR2 Inhibitory Activities from the Sponge Stylissa massa” (Marine Drugs, 2022).
Several values for one entry are separate records, joined by “and”; a condition that tells them apart may be missing. Equal entries are not always repeated.

Legend:
[1] = target: T1, ALR2 (AKR1B1, aldose reductase) (Homo sapiens, UniProt P15121); test: ALR2 enzyme assay (in vitro); assay type: biochemical; conditions: for inhibition at 20 µM: read-out: ALR2 inhibition rate
T1 construct: The plasmid (pET28b, Novagen) containing the open reading frame of the human ALR2 gene; hexa-histidine (cleaved yes); made in house; host or cells: E. coli BL21 gold (DE3)
Protocol: (§1) For the AKR1B1 enzyme assay and SPR measurements, the protein was expressed and purified using the protocol related to the one reported previously. The plasmid (pET28b, Novagen) containing the open reading frame of the human ALR2 gene was kindly provided by Atagenix, Wuhan, Hubei, China. The E. coli strain BL21 gold (DE3) (Novagen) was used to express the hexa-histidine tagged protein after induction with IPTG (Roth) for 16 h at 293 K. The pellet from a 4 L culture was resuspended in a buffer containing 20 mM Tris and 500 mM NaCl (pH 8.0) before being sonicated and centrifuged. A HiTrap chelating HP column (GE Healthcare) was loaded with the supernatant. After a short washing step with a low imidazole concentration, the fusion protein was eluted by applying a gradient of imidazole. The buffer was exchanged with 20mM Tris-HCl, 10 mM NaCl, 1mM EDTA, and the tag cleaved by thrombin (yuanyeBio-Technology Co. Ltd. Shanghai, China). A Hiprep DEAE FastFlow 16/10 column (GE Healthcare) was loaded with the remaining solution. A NaCl gradient was used to elute the ALR2 from the column.
In the first step of the polyol pathway, glucose reduction is accompanied by the conversation of NADPH to NADP, where only NADPH has an obvious spectral absorption around 340 nm and NADP has none. Thus, the decrease in OD340nm can represent the consumption of NADPH. Therefore, we detect the change of OD340nm before and after reaction to screen the effective ARIs or evaluate the AR activity; assays with epalrestat were used as positive controls. Briefly, the incubation system contains 10 µL ALR2 enzyme (20 µg/mL), 80 µL DL-glyceraldehyde (0.16 mmol/L) as the substrate, 1.0 mmol/L NADPH·4Na as a coenzyme, and 0.1 mol/L PBS (pH = 6.2). […] Then, the absorbance was measured using FlexStation 3 Reader (Molecular Devices, San Francisco, CA, USA) at 340 nm. The absorbance of wells treated with PBS and NADPH was considered as 100% (OD1) and the absorbance of wells treated with PBS and DL-glyceraldehyde was considered as 0% (OD2); the inhibitory rate was calculated by the formula ODcompounds − OD2/OD1 − OD2. […]

ALR2 = target: T2, ALR2 (Homo sapiens, UniProt P15121); test: Surface plasmon resonance (SPR) binding assay, Biacore T200; conditions: ALR2 immobilized on CM5 chip, PBS-P+ buffer, room temperature; read-out: KD value (binding between ALR2 and compound, SPR)
T2 construct: The plasmid (pET28b, Novagen) containing the open reading frame of the human ALR2 gene; hexa-histidine (cleaved yes); made in house; host or cells: E. coli BL21 gold (DE3)
Protocol: as §1
SPR binding analysis methodology can be used to study molecular interactions. Herein, SPR was applied to measure the interactions between compounds 13/14 and ALR2. Initially, ALR2 was prepared in 10 mM sodium acetate (pH 5.0) and then immobilized covalently by an amine-coupling reaction on a CM5 sensor chip. […]

inhibition at 20 µM [1] [%]	IC50 ([1]; recombinant ALR2, DL-glyceraldehyde substrate, NADPH, PBS pH 6.2, 10 min at 25 °C, OD340nm, read-out: IC50 of ALR2 inhibitory activity) [µM]	Kd (ALR2)	SMILES
> 50	13.1	6.9 µM and 6.89 µM	NC1=NC(=O)/C(=C2/CCNC(=O)c3[nH]ccc32)N1 [Compound 14]
> 50	–	12.5 µM	NC1=NC(=O)/C(=C2\CCNC(=O)c3[nH]ccc32)N1 [Compound 13]
